The term IC50 denotes the concentration that gives 50% inhibition.

The first test deals with IL-1β production in PMA-differentiated THP-1 cells. Kind of test: IL-1β production in PMA-differentiated THP-1 cells stimulated with gramicidin (hTHP-1 assay, HTRF readout; Procedures 1-3). It is filed as cell-based, human. The settings on record: Homo sapiens, THP-1, hTHP-1 assay containing 2% fetal bovine serum; average; class symbols; read-out: hTHP-1 IC50 (Average IC50 of compounds in hTHP-1 assay). In outline: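 PMA-differentiated (20 ng/ml, 16-18 h) THP-1 cells in RPMI with 2% FBS, 50,000 cells/well, preincubated 1 h with compound (final 0.0017-100 μM, 0.37% DMSO), then stimulated with 5 μM gramicidin for 2 h. IL-1β in cell-free supernatant measured by HTRF (620/668 nm).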
A general note: In TR-FRET formats the signal depends on donor and acceptor labels being close together.
For `Cc1cc(C(C)(C)O)sc1S(N)(=O)=NC(=O)Nc1c(C(C)C)cc(OC(F)F)cc1C(C)C` (single isomer, unassigned) [Example 109, (S)- or (R)-N′-(4-(difluoromethoxy)-2,6-diisopropylphenylcarbamoyl)-5-(2-hydroxypropan-2-yl)-3-methylthiophene-2-sulfonimidamide], the 50% inhibitory concentration (IC50) lay in the range of 0.2 to 1 µM.
`CC(C)c1cc(C#N)cc(C(C)C)c1NC(=O)N=S(N)(=O)c1ccc(S(C)(=O)=O)cc1` (stereo not shown) [Example 73, N′-((4-cyano-2,6-diisopropylphenyl)carbaoyl)-4-(methylsulfonyl)benzenesulfonim idamide]: the IC50 was 1 to 5 µM.
As to `CC(C)c1cc(F)cc(C(C)C)c1NC(=O)N=S(N)(=O)c1ccc(C(C)(C)O)cc1` (stereo not shown) [Example 11, N′-(4-fluoro-2,6-diisopropylphenylcarbamoyl)-4-(2-hydroxypropan-2-yl)benzenesulfonimidamide], the half-maximal inhibitory concentration (IC50) is 5 to 30 µM.
On to `CC(C)c1csc(S(N)(=O)=NC(=O)Nc2c3c(cc4c2CCC4)CCC3)c1` (stereo not shown) [Example 282, N′-((1,2,3,5,6,7-hexahydro-s-indacen-4-yl)carbamoyl)-4-isopropylthiophene-2-sulfonimidamide], for which the IC50 was […].
Same read-out and setting: next, `CC(C)(O)c1ncc(S(N)(=O)=NC(=O)Nc2c3c(c(C#N)c4c2CCC4)CCC3)s1` (stereo not shown) [Example 43, N′-(8-cyano-1,2,3,5,6,7-hexaliydro-s-indacen-4-ylcarbamoyl)-2-(2-hydroxypropan-2-yl)thiazole-5-sulfonimidamide]: 0.04 to 0.2 µM; `CCc1ccc2cn[nH]c2c1NC(=O)N=S(N)(=O)c1cnc(C(C)(C)O)s1` (stereo not shown) [Example 290, N′-((6-ethyl-1H-indazol-7-yl)carbamoyl)-2-(2-hydroxypropan-2-yl)thiazole-5-sulfonimidamide]: 1 to 5 µM; `COCc1ccc(S(N)(=O)=NC(=O)Nc2c3c(cc4c2CCC4)CCC3)cc1` (stereo not shown) [Example 242, N′-(1,2,3,5,6,7-hexahydro-s-indacen-4-ylcarbamoyl)-4-(methoxymethyl)benzenesulfonimidamide]: 1 to 5 µM.
Take `CC(C)c1cc(OC(F)F)cc(C(C)C)c1NC(=O)N=S(N)(=O)c1sc(C(C)(C)O)cc1F` (stereo not shown) [Example 17, N′-(4-(difluoromethoxy)-2,6-diisopropylphenylcarbamoyl)-3-fluoro-5-(2-hydroxypropan-2-yl)thiophene-2-sulfonimidamide]: the 50% inhibitory concentration (IC50) lay within 0.008 to 0.04 µM.
With `C#CCN(C)Cc1ccc(S(N)(=O)=NC(=O)Nc2c3c(cc4c2CCC4)CCC3)cc1` (stereo not shown) [Example 239, N′-(1,2,3,5,6,7-hexahydro-s-indacen-4-ylcarbamoyl)-4-((methyl(prop-2-ynyl)amino)methyl)benzene-sulfonimidamide], the IC50 was 1 to 5 µM.
On to `CC(C)(O)c1ncc(S(N)(=O)=NC(=O)Nc2c3c(c(OC(F)F)c4c2CCC4)CCC3)s1` (stereo not shown) [Example 27, N′-(8-(difluoromethoxy)-1,2,3,5,6,7-hexahydro-s-indacen-4-ylcarbainoyl)-2-(2-hydroxypropan-2-yl)thiazole-5-sulfonimidamide], for which the IC50 lay in the range of 0.2 to 1 µM.
Regarding `CC(C)c1cc(F)cc(C(C)C)c1NC(=O)N=S(N)(=O)c1ccc(CN(C)C)cc1` (stereo not shown) [Example 36, 4-((dimethylamino)methyl)-N′-(4-fluoro-2,6-diisopropylphenylcarbamoyl)-benzenesulfoniniidamide], the IC50 was 1 to 5 µM.
For `CC(C)c1ccc(S(N)(=O)=NC(=O)Nc2c3c(cc4c2CCC4)CCC3)cn1` (single isomer, unassigned) [Example 402, (S) or (R)-N′-((1,2,3,5,6,7-hexahydro-s-indacen-4-yl)carbamoyl)-6-isopropylpyridine-3-sulfonimidamide], the IC50 fell in the range of 1 to 5 µM.
With `CCc1ccc2cn[nH]c2c1NC(=O)N=S(N)(=O)c1cnc(C(C)(C)O)s1` (single isomer, unassigned) [Example 326, (R) or (S)-N′-((6-ethyl-1H-indazol-7-yl)carbamoyl)-2-(2-hydroxypropan-2-yl)thiazole-5-sulfonimidamide], the IC50 lay within 5 to 30 µM.
In the case of `CC(C)c1cc(OC(F)F)cc(C2CC2)c1NC(=O)N=S(N)(=O)c1ccc(C(C)(C)O)cc1F` (stereo not shown) [Example 54], the half-inhibitory concentration (IC50) is 1 to 5 µM.
Still for that read-out and setting: next, `CC(C)c1cc(F)cc(C(C)C)c1NC(=O)N=S(N)(=O)c1cc(C(C)(C)O)cs1` (stereo not shown) [Example 40, N′-(4-fluoro-2,6-diisopropylphenylcarbamoyl)-4-(2-hydroxypropan-2-yl)thiophene-2-sulfonimidamide]: 0.04 to 0.2 µM.
Consider `CC(=O)NS(=O)(=NC(=O)Nc1c2c(cc3c1CCC3)CCC2)c1cnc(C(C)(C)O)s1` (stereo not shown) [Example 250], for which the IC50 was in the range of 5 to 30 µM.
With `Cc1ccc(S(N)(=O)=NC(=O)Nc2c(C(C)C)cc(F)cc2C(C)C)nc1` (stereo not shown) [Example 220, N′-((4-fluoro-2,6-diisopropylphenyl)carbamoyl)-5-methylpyridine-2-sulfonimidamide], the concentration for half-maximal inhibition (IC50) lay within 5 to 30 µM.
`CN1CCc2cc(S(N)(=O)=NC(=O)Nc3c4c(cc5c3CCC5)CCC4)ccc2C1` (single isomer, unassigned) [Example 395, (R) or (S)-N′-((1,2,3,5,6,7-hexahydro-s-indacen-4-yl)carbamoyl)-2-methyl-1,2,3,4-tetrahydroisoquinoline-6-sulfonimidamide]: the IC50 lay in the range of 1 to 5 µM.
The same measure, in the same setting: next, `CC(=O)N(C)Cc1ccc(S(N)(=O)=NC(=O)Nc2c3c(cc4c2CCC4)CCC3)cc1` (single isomer, unassigned) [Example 366, (R) or (S)-N-(4-(N′-((1,2,3,5,6,7-hexahydro-s-indacen-4-yl)carbamoyl)sulfamid-imidoyl)benzyl)-N-methylacetamide]: 1 to 5 µM.

The test is the same for the next values; noted with them: Homo sapiens, THP-1, hTHP-1 assay containing 2% fetal bovine serum; average; given as bound; read-out: hTHP-1 IC50 (Average IC50 of compounds in hTHP-1 assay).
Regarding `CC(C)c1cc(C#N)cc(C(C)C)c1NC(=O)N=S(N)(=O)c1sc(C(C)(C)O)nc1CO` (single isomer, unassigned) [Example 193, (R)- or (S)-N′-((4-cyano-2,6-diisopropylphenyl)carbamoyl)-4-(hydroxymethyl)-2-(2-hydroxypropan-2-yl)thiazole-5-sulfonimidamide], the IC50 is greater than 30 µM.
Consider `CCc1ccc2cn(C)nc2c1NC(=O)N=S(N)(=O)c1ncc(C(C)(C)O)s1` (stereo not shown) [Example 256, N′-((6-ethyl-2-methyl-2H-indazol-7-yl)carbamoyl)-5-(2-hydroxypropan-2-yl)thiazole-2-sulfonimidamide], for which the IC50 is greater than 30 µM.
Regarding `Cc1cc(C(C)(C)O)sc1S(N)(=O)=NC(=O)Nc1c(C(C)C)cc(OC(F)F)cc1C(C)C` (single isomer, unassigned) [Example 110, (R)- or (S)-N′-(4-(difluoromethoxy)-2,6-diisopropylphenylcarbamoyl)-5-(2-hydroxypropan-2-yl)-3-methylthiophene-2-sulfonimidamide], the IC50 was greater than 30 µM.
Consider `Cc1cc(C(C)(C)O)ccc1S(N)(=O)=NC(=O)Nc1c(C(C)C)cc(OC(F)F)cc1C1CC1` (single isomer, unassigned) [Example 120, (R)- or (S)-N′-(2-cyclopropyl-4-(difluoromethoxy)-6-isopropylphenylcar-bamoyl)-4-(2-hydroxypropan-2-yl)-2-methylbenzenesulfonimidamidc], for which the concentration for half-maximal inhibition (IC50) was greater than 30 µM.
As for `CN(C)S(=O)(=NC(=O)Nc1c2c(cc3c1CCC3)CCC2)c1cc(C(C)(C)O)cs1` (single isomer, unassigned) [Example 358, (S) or (R) -N′-((1,2,3,5,6,7-hexahydro-s-indacen-4-yl)carbamoyl)-4-(2-hydroxypropan-2-yl)-N,N-dimethylthiophene-2-sulfonimidamide], the concentration for half-maximal inhibition (IC50) is greater than 30 µM.
The same measure, in the same setting: next, `CC(C)c1cc(C#N)cc(C(C)C)c1NC(=O)N=S(N)(=O)c1cc(C(C)(C)O)cc(C(C)(C)O)c1` (single isomer, unassigned) [Example 199, N′-((4-cyano-2,6-diisopropylphenyl)carbamoyl)-3,5-bis-(2-hydroxypropan-2-yl)benzenesulfonimidamide]: greater than 30 µM; `CC(C)c1cc(-c2ccccc2CO)cc(C(C)C)c1NC(=O)N=S(N)(=O)c1ccc(CN(C)C)cc1` (stereo not shown) [Compound 249]: greater than 30 µM; `CC(C)c1ccc(S(N)(=O)=NC(=O)Nc2c3c(cc4c2CCC4)CCC3)cn1` (single isomer, unassigned) [Example 401, (R) or (S)-N′-((1,2,3,5,6,7-hexahydro-s-indacen-4-yl)carbamoyl)-6-isopropylpyridine-3-sulfonimidamide]: greater than 30 µM.
Take `Cc1cc(NC(=O)N=S(N)(=O)c2cc(C)c(C(C)(C)O)s2)cc(C)n1` (stereo not shown) [Example 9, N′-((2,6-dimethylpyridin-4-yl)carbamoyl)-4-methyl-5-(2-hydroxypropan-2-yl)thiophene-2-sulfonimidamide]: the half-inhibitory concentration (IC50) is greater than 30 µM.
For the compound `COCc1ccccc1S(N)(=O)=NC(=O)Nc1c(C(C)C)cc(F)cc1C(C)C` (stereo not shown) [Example 213, N′-((4-fluoro-2,6-diisopropylphenyl)carbamoyl)-2-(methoxymethyl)benzene-sulfonimidamide], the half-inhibitory concentration (IC50) is greater than 30 µM.

Still in this test, the particulars now being: hTHP-1 assay containing 2% fetal bovine serum; average; class symbols; read-out: hTHP-1 IC50 (Average IC50 of compounds in hTHP-1 assay).
Regarding `CC(C)(O)c1ncc(S(N)(=O)=NC(=O)Nc2c3c(cc4c2CCC4O)CCC3)s1` (single isomer, unassigned) [Example 339, (S, S) or (S, R)-N′-((l-hydroxy-1,2,3,5,6,7-hexahydro-s-indacen-4-yl)carbamoyl)-2-(2-hydroxypropan-2-yl)thiazole-5-sulfonimidamide], the half-maximal inhibitory concentration (IC50) was in the range of 1 to 5 µM.

Still in this test, the particulars now being: hTHP-1 assay containing 2% fetal bovine serum; average; given as bound; read-out: hTHP-1 IC50 (Average IC50 of compounds in hTHP-1 assay).
`CCc1ccc2cn(C)nc2c1NC(=O)N=S(N)(=O)c1ncc(C(C)(C)O)s1` (single isomer, unassigned) [Example 330, (R) or (S)-N′-((6-ethyl-2-methyl-2H-indazol-7-yl)carbamoyl)-5-(2-hydroxypropan-2-yl)thiazole-2-sulfonimidamide]: the half-maximal inhibitory concentration (IC50) was greater than 30 µM.

For the origin of these results see patent publication US10654816B2, “Compounds and compositions for treating conditions associated with NLRP activity” (NOVARTIS INFLAMMASOME RESEARCH, INC., priority 2017, dated 2020).
